From EP0457243A1, “Novel tricyclic compounds” (priority 1990, dated 1991)
Read-outs that look alike come from different tables or passages of the source.

Key:
[1] = system: C5BI/6J mice; test: Mouse anxiolytic behavior model (two-compartment exploratory model); type: in vivo; set-up: % ACTIVITY DARK AREA W% / SHUTTLE ACTIVITY W% / LOCOMOTOR ACTIVITY (LIGHT AREA) W% / % ACTIVITY DARK AREA Mean ± SD: concentration or dose not given beside the values; settings: for % ACTIVITY DARK AREA Mean ± SD / LATENCY (SEC) Mean ± SD / LOCOMOTOR ACTIVITY (LIGHT AREA) Mean ± SD / SHUTTLE ACTIVITY Mean ± SD / TIME DARK AREA (SEC) Mean ± SD: i.p., 15 min post-treatment, monitored for 10 minutes; for % ACTIVITY DARK AREA W% / LATENCY (SEC) W% / LOCOMOTOR ACTIVITY (LIGHT AREA) W% / SHUTTLE ACTIVITY W% / TIME DARK AREA (SEC) W%: percentage change from control
Procedure: In brief, the method involves determining whether a compound reduces the natural anxiety of mice in brightly-lit areas.
The following describes an in vivo method for determining anxiolytic activity of compounds of Formula I.
Naive male C5BI/6J mice, 18-20 g, are kept in groups of 10 mice in quarters controlled for sound, temperature and humidity. Food and water are available ad libitum. The mice are kept on a 12 hour light and 12 hour dark cycle, with lights on at 6:00 a.m. and off at 6:00 p.m. All experiments begin at least 7 days after arrival on site.
Briefly, the chamber consists of a plexiglass box (44 x 21 x 21 cm), divided into two chambers by a black plexiglass partition. The partition dividing the two chambers contains a 13 x 5 cm opening through which the mouse can easily pass. The dark chamber has […]. A fluorescent tube light (40 watt) placed above the chambers provides the only illumination. The Digiscan Animal Activity Monitor System RXYZCM16 (Omni-Tech Electronics) records the exploratory activity of the mice within the test chambers.
Prior to commencement of the study the mice are given 60 min to acclimatize to the laboratory environment. After a mouse receives an intraperitoneal (i.p.) injection of either test compound or vehicle it is returned to its home cage for a 15 min post-treatment period. The mouse is then placed in the center of the light chamber and monitored for 10 minutes.
(§1) Anxiolysis is seen as a general increase in exploratory activity in the lighted area. An increase in exploratory activity is relected by increased latency (the time for the mouse to move to the dark chamber when first placed in the center of the lighted area), increase in shuttle activity, increased or unaltered locomotor activity (number of grid lines crossed) and decreased time spent in the dark compartment.

[2] = Toxicity observation after i.p. administration; type: in vivo; settings: 10 mg/kg, over 90 minutes
[3] = system: BKW mice; settings: 1 µ/g/kg i.p.
Procedure: Anxiolytic activity during withdrawal from drugs of abuse is determined by the mouse light/dark withdrawal anxiety test. This procedure utilizes the exploratory model described above to test for anxiolytic activity after administration and subsequent abrupt cessation of diazepam, alcohol, cocaine or nicotine treatments. A detailed description is set for in Example 13 of this application.
The following procedure describes a method to determine whether compounds of Formula I effect the anxiety that occurs after abruptly ceasing chronic treatment with drugs of abuse.
Naive male BKW mice (25-30 g) are caged in groups of ten in quarters controlled for sound, temperature and humidity. Food and water are available ad libitum. The mice are kept on a 12 hour light cycle and 12 hour dark cycle, with lights on at 6:00 a.m. and off at 6:00 p.m. All experiments begin at least 7 days after arrival on site.
as §1, with “Levels of anxiety are determined by the two-compartment exploratory model of Crawley and Goodwin (see Example 12). Anxiolysis” for “Anxiolysis”, “area),” for “area), increase in shuttle activity,”, “crossed), increased number of rears” for “crossed)”
Increased exploratory activity in the lighted area is induced by treating the mice for 14 days with alcohol (8.0 % w/v in drinking water), nicotine (0.1 mg/kg, i.p., twice daily), diazepam (10 mg/kg, i.p., twice daily), or cocaine (1.0 mg/kg, i.p., twice daily). Anxiolysis is assessed 1, 3, 7 and 14 days after commencement of the drug regime. The treatment is abruptly ceased and exploratory activity in the lighted area is determined 8, 24 and 48 hours thereafter. Vehicle or test compounds are administered during the withdrawl phase by intraperitoneal injection. Responses are represented as inhibition of the decrease in anxiolytic behavior after the alcohol, cocaine or nicotine treatment is ceased.

| SMILES | % ACTIVITY DARK AREA Mean ± SD [1] [%] | LATENCY (SEC) Mean ± SD [1] [s] | LOCOMOTOR ACTIVITY (LIGHT AREA) Mean ± SD [1] | SHUTTLE ACTIVITY Mean ± SD [1] | TIME DARK AREA (SEC) Mean ± SD [1] [s] | % ACTIVITY DARK AREA W% [1] [%] | LATENCY (SEC) W% [1] [%] | LOCOMOTOR ACTIVITY (LIGHT AREA) W% [1] [%] | SHUTTLE ACTIVITY W% [1] [%] | TIME DARK AREA (SEC) W% [1] [%] | unusual effects observed [2] | further results |
| --- | --- | --- | --- | --- | --- | --- | --- | --- | --- | --- | --- | --- |
| I.Nc1c(Cl)cc2c3c(cccc13)C(=O)N([C@@H]1CN3CCC1CC3)C2=O [(2), S-6-amino-5-chloro-2-(1-azabicyclo[2.2.2]oct-3-yl)-2,3-dihydro-1H-benz[de]isoquinoline-1,3-dione hydrogeniodide] | 78.4 ± 1.8 | 8.1 ± 1.4 | 1602.4 ± 73.0 | 138.6 ± 9.1 | 498.4 ± 9.3 | -10.0 | 102.5 | 42.6 | 112.3 | -10.8 | – | – |
| Cl.Nc1cc2c3c(cccc3c1Cl)C(=O)N(C1CN3CCC1CC3)C2=O (stereo not shown) [RS-6-chloro-5-amino-2-(1-azabicyclo[2.2.2]oct-3-yl)-2,3-dihydro-1H-benz[de]isoquinoline-1,3-dione hydrochloride] | – | – | – | – | – | – | – | – | – | – | No unusual effects | – |
| Cl.Nc1cc2c3c(cccc3c1Cl)C(=O)N([C@@H]1CN3CCC1CC3)C2=O [S-6-chloro-5-amino-2-(1-azabicyclo[2.2.2]oct-3-yl)-2,3-dihydro-1H-benz[de]isoquinoline-1,3-dione hydrochloride] | – | – | – | – | – | – | – | – | – | – | No unusual effects | – |
| Cl.O=C1c2cccc3cccc(c23)C(=O)N1[C@@H]1CN2CCC1CC2 [S-2-(1-azabicyclo[2.2.2]oct-3-yl)-2,3-dihydro-1H-benz[de]isoquinoline-1,3-dione hydrochloride] | – | – | – | – | – | – | – | – | – | – | No unusual effects | – |
| Cc1nccn1CC1CCc2c(c3ccccc3n2C)C1=O (stereo not shown) [Ondansetron, reference compound] | 78.5 ± 4.7 | 6.7 ± 1.5 | 1582.0 ± 77.8 | 121.0 ± 12.4 | 499.4 ± 14.8 | -13.1 | 4.7 | 52.6 | 182.7 | -12.8 | – | – |
| Cl.Nc1c(Cl)cc2c3c(cccc13)C(=O)N([C@@H]1CN3CCC1CC3)C2=O [(1), S-6-amino-5-chloro-2-(1-azabicyclo[2.2.2]oct-3-yl)-2,3-dihydro-1H-benz[de]isoquinoline-1,3-dione hydrochloride] | 37.6 ± 4.9 | 3.5 ± 0.5 | 1208.0 ± 86.4 | 42.0 ± 3.9 | 394.9 ± 32.8 | -54.0 | -28.6 | 41.0 | 37.3 | -26.9 | – | Crossings/ 5 Min in Light ([3]; alcohol withdrawal): 88.0±9.0; Latency ([3]; alcohol withdrawal): 9.0 ± 1.3 s; Rears/5 Min in Light ([3]; alcohol withdrawal): 86.0±9.0; Time in Dark (%) ([3]; alcohol withdrawal): 60.0±6.4%; Crossings/ 5 Min in Light ([3]; cocaine withdrawal): 135.±15.7; Latency ([3]; cocaine withdrawal): 28.7 ± 2.81 s; Rears/5 Min in Light ([3]; cocaine withdrawal): 101.±2.81; Time in Dark (%) ([3]; cocaine withdrawal): 22.5±2.4%; Crossings/ 5 Min in Light ([3]; diazepam withdrawal): 97.5±10.6; Latency ([3]; diazepam withdrawal): 34.0 ± 3.7 s; Rears/5 Min in Light ([3]; diazepam withdrawal): 89.2±9.1; Time in Dark (%) ([3]; diazepam withdrawal): 27.4±2.9%; Crossings/ 5 Min in Light ([3]; nicotine withdrawal): 94.0±10.1; Latency ([3]; nicotine withdrawal): 20.8 ± 2.4 s; Rears/5 Min in Light ([3]; nicotine withdrawal): 84.5±9.0; Time in Dark (%) ([3]; nicotine withdrawal): 29.0±3.1% |
